Laboratory results: ChEMBL document CHEMBL3400018, “One-pot catalyst free synthesis of novel kojic acid tagged 2-aryl/alkyl substituted-4H-chromenes and evaluation of their antimicrobial and anti-biofilm activities” (Bioorg Med Chem Lett, 2015)
Converted amounts (≈) assume the structure as drawn. The source made the active and inactive calls. The rule behind the calls is not given here.

Assays:
Bacillus subtilis [1] = test: Antimicrobial activity against Bacillus subtilis MTCC 121 after 24 hrs by well diffusion method; assay type: functional; conditions: MTCC 121, 24 h
Escherichia coli [2] = test: Antimicrobial activity against Escherichia coli MTCC 739 after 24 hrs by well diffusion method; assay type: functional; conditions: MTCC 739, 24 h
Raoultella planticola = test: Antimicrobial activity against Klebsiella planticola MTCC 530 after 24 hrs by well diffusion method; assay type: functional; conditions: MTCC 530, 24 h
Staphylococcus aureus [3] = test: Bactericidal activity against Staphylococcus aureus MLS-16 MTCC 2940 after 24 hrs by Mueller Hinton agar plate assay; assay type: functional; conditions: MLS-16, 24 h
Staphylococcus aureus [4] = test: Antimicrobial activity against Staphylococcus aureus MLS-16 MTCC 2940 after 24 hrs by well diffusion method; assay type: functional; conditions: MLS-16 MTCC 2940, 24 h
Candida albicans = test: Antimicrobial activity against Candida albicans MTCC 3017 after 24 hrs by well diffusion method; assay type: functional, organism-based
Escherichia coli [5] = test: Bactericidal activity against Escherichia coli MTCC 739 after 24 hrs by Mueller Hinton agar plate assay; assay type: functional; conditions: MTCC 739, 24 h
Escherichia coli [6] = test: Antimicrobial activity against Escherichia coli MTCC 739 assessed as inhibition of biofilm formation after 24 hrs; assay type: functional, organism-based; conditions: MTCC 739, 24 h
Bacillus subtilis [7] = test: Bactericidal activity against Bacillus subtilis MTCC 121 after 24 hrs by Mueller Hinton agar plate assay; assay type: functional; conditions: MTCC 121, 24 h
Bacillus subtilis [8] = test: Antimicrobial activity against Bacillus subtilis MTCC 121 assessed as inhibition of biofilm formation after 24 hrs; assay type: functional, organism-based; conditions: MTCC 121, 24 h
Pseudomonas aeruginosa = test: Antimicrobial activity against Pseudomonas aeruginosa MTCC 2453 after 24 hrs by well diffusion method; assay type: functional; conditions: MTCC 2453, 24 h
Staphylococcus aureus [9] = test: Antimicrobial activity against Staphylococcus aureus MLS-16 MTCC 2940 assessed as inhibition of biofilm formation after 24 hrs; assay type: functional, organism-based; conditions: MLS-16, 24 h
Micrococcus luteus = test: Antimicrobial activity against Micrococcus luteus MTCC 2470 after 24 hrs by well diffusion method; assay type: functional; conditions: MTCC 2470, 24 h

Compound | MIC (Bacillus subtilis [1]) | MIC (Escherichia coli [2]) | MIC (Staphylococcus aureus [4]) | MIC (Candida albicans) | IC50 (Escherichia coli [6]) | IC50 (Bacillus subtilis [8]) | MIC (Pseudomonas aeruginosa) | IC50 (Staphylococcus aureus [9]) | MIC (Micrococcus luteus) | MIC (Raoultella planticola) | MBC (Staphylococcus aureus [3]) | MBC (Escherichia coli [5]) | MBC (Bacillus subtilis [7])
O=c1cc(CO)oc(C2C=C(c3cccs3)Oc3ccccc32)c1O (configuration not stated) | 7.8 µg/mL (≈ 22 µM) | 15.6 µg/mL (≈ 44 µM) | 7.8 µg/mL (≈ 22 µM) | inactive | 18.2 µg/mL (≈ 51.4 µM) | 4.6 µg/mL (≈ 13 µM) | > 125 µg/mL | 8.8 µg/mL (≈ 24.8 µM) | > 125 µg/mL | > 125 µg/mL | 15.6 µg/mL (≈ 44 µM) | 31.2 µg/mL (≈ 88 µM) | 7.8 µg/mL (≈ 22 µM)
O=c1cc(CO)oc(C2C=C(c3ccccc3Br)Oc3ccccc32)c1O (configuration not stated) | > 125 µg/mL | > 125 µg/mL | > 125 µg/mL | inactive | – | – | > 125 µg/mL | – | > 125 µg/mL | > 125 µg/mL | – | – | –
CCC1=CC(c2oc(CO)cc(=O)c2O)c2ccccc2O1 (configuration not stated) | > 125 µg/mL | > 125 µg/mL | > 125 µg/mL | inactive | – | – | > 125 µg/mL | – | > 125 µg/mL | > 125 µg/mL | – | – | –
CC(C)CC1=CC(c2oc(CO)cc(=O)c2O)c2ccccc2O1 (configuration not stated) | 7.8 µg/mL (≈ 23.8 µM) | > 125 µg/mL | 7.8 µg/mL (≈ 23.8 µM) | inactive | > 125 µg/mL | 11.3 µg/mL (≈ 34.4 µM) | > 125 µg/mL | 9.2 µg/mL (≈ 28 µM) | > 125 µg/mL | > 125 µg/mL | 15.6 µg/mL (≈ 47.5 µM) | > 125 µg/mL | 15.6 µg/mL (≈ 47.5 µM)
CC[C@H]1OC(=O)[C@H](C)[C@@H](O[C@H]2C[C@@](C)(OC)[C@@H](O)[C@H](C)O2)[C@H](C)[C@@H](O[C@@H]2O[C@H](C)C[C@H](N(C)C)[C@H]2O)[C@](C)(O)C[C@@H](C)C(=O)[C@H](C)[C@@H](O)[C@]1(C)O [ERYTHROMYCIN] | – | – | – | – | 0.31 µg/mL (≈ 0.422 µM) | 0.19 µg/mL (≈ 0.259 µM) | – | 0.23 µg/mL (≈ 0.313 µM) | – | – | – | – | –
CC1=CC(c2oc(CO)cc(=O)c2O)c2ccccc2O1 (configuration not stated) | > 125 µg/mL | > 125 µg/mL | > 125 µg/mL | inactive | – | – | > 125 µg/mL | – | > 125 µg/mL | > 125 µg/mL | – | – | –
O=c1cc(CO)oc(C2C=C(c3cc(F)cc(F)c3)Oc3ccccc32)c1O (configuration not stated) | > 125 µg/mL | > 125 µg/mL | > 125 µg/mL | inactive | – | – | > 125 µg/mL | – | > 125 µg/mL | > 125 µg/mL | – | – | –
O=C(O)c1cn(C2CC2)c2cc(N3CCNCC3)c(F)cc2c1=O [CIPROFLOXACIN] | 0.9 µg/mL (≈ 2.72 µM) | 0.9 µg/mL (≈ 2.72 µM) | 0.9 µg/mL (≈ 2.72 µM) | inactive | – | – | 0.9 µg/mL (≈ 2.72 µM) | – | 0.9 µg/mL (≈ 2.72 µM) | 0.9 µg/mL (≈ 2.72 µM) | 1.9 µg/mL (≈ 5.73 µM) | 1.9 µg/mL (≈ 5.73 µM) | 0.9 µg/mL (≈ 2.72 µM)
O=c1cc(CO)oc(C2C=C(c3ccc4c(c3)OCO4)Oc3ccccc32)c1O (configuration not stated) | 7.8 µg/mL (≈ 19.9 µM) | 15.6 µg/mL (≈ 39.8 µM) | > 125 µg/mL | inactive | 17.8 µg/mL (≈ 45.4 µM) | 8.1 µg/mL (≈ 20.6 µM) | > 125 µg/mL | > 125 µg/mL | > 125 µg/mL | > 125 µg/mL | > 125 µg/mL | 31.2 µg/mL (≈ 79.5 µM) | 15.6 µg/mL (≈ 39.8 µM)
O=c1cc(CO)oc(C2C=C(c3ccc4ccccc4c3)Oc3ccccc32)c1O (configuration not stated) | > 125 µg/mL | > 125 µg/mL | > 125 µg/mL | inactive | – | – | > 125 µg/mL | – | > 125 µg/mL | > 125 µg/mL | – | – | –

Now from value to molecule, other results behind:

MIC (Bacillus subtilis [1]) | MIC (Escherichia coli [2]) | MIC (Staphylococcus aureus [4]) | MIC (Candida albicans) | IC50 (Escherichia coli [6]) | IC50 (Bacillus subtilis [8]) | MIC (Pseudomonas aeruginosa) | IC50 (Staphylococcus aureus [9]) | MIC (Micrococcus luteus) | Compound | MIC (Raoultella planticola) | MBC (Staphylococcus aureus [3]) | MBC (Escherichia coli [5]) | MBC (Bacillus subtilis [7])
> 125 µg/mL | > 125 µg/mL | > 125 µg/mL | inactive | – | – | > 125 µg/mL | – | > 125 µg/mL | O=c1cc(CO)oc(C2C=C(c3ccccc3)Oc3ccc(Cl)cc32)c1O (configuration not stated) | > 125 µg/mL | – | – | –
7.8 µg/mL (≈ 20.6 µM) | 7.8 µg/mL (≈ 20.6 µM) | 15.6 µg/mL (≈ 41.2 µM) | inactive | 6.1 µg/mL (≈ 16.1 µM) | 10.2 µg/mL (≈ 27 µM) | > 125 µg/mL | 15.4 µg/mL (≈ 40.7 µM) | > 125 µg/mL | COc1ccc(C2=CC(c3oc(CO)cc(=O)c3O)c3ccccc3O2)cc1 (configuration not stated) | > 125 µg/mL | 31.2 µg/mL (≈ 82.5 µM) | 7.8 µg/mL (≈ 20.6 µM) | 15.6 µg/mL (≈ 41.2 µM)
7.8 µg/mL (≈ 20.4 µM) | > 125 µg/mL | 15.6 µg/mL (≈ 40.8 µM) | inactive | > 125 µg/mL | 3.6 µg/mL (≈ 9.4 µM) | > 125 µg/mL | 9.1 µg/mL (≈ 23.8 µM) | > 125 µg/mL | O=c1cc(CO)oc(C2C=C(c3ccc(Cl)cc3)Oc3ccccc32)c1O (configuration not stated) | > 125 µg/mL | 15.6 µg/mL (≈ 40.8 µM) | > 125 µg/mL | 7.8 µg/mL (≈ 20.4 µM)
15.6 µg/mL (≈ 43 µM) | 7.8 µg/mL (≈ 21.5 µM) | 15.6 µg/mL (≈ 43 µM) | inactive | 9.1 µg/mL (≈ 25.1 µM) | 20.1 µg/mL (≈ 55.5 µM) | > 125 µg/mL | 18.6 µg/mL (≈ 51.3 µM) | > 125 µg/mL | Cc1ccc(C2=CC(c3oc(CO)cc(=O)c3O)c3ccccc3O2)cc1 (configuration not stated) | > 125 µg/mL | 31.2 µg/mL (≈ 86.1 µM) | 15.6 µg/mL (≈ 43 µM) | 31.2 µg/mL (≈ 86.1 µM)
> 125 µg/mL | > 125 µg/mL | > 125 µg/mL | inactive | – | – | > 125 µg/mL | – | > 125 µg/mL | O=c1cc(CO)oc(C2C=C(c3cccc(O)c3)Oc3ccccc32)c1O (configuration not stated) | > 125 µg/mL | – | – | –
> 125 µg/mL | > 125 µg/mL | > 125 µg/mL | inactive | – | – | > 125 µg/mL | – | > 125 µg/mL | O=c1cc(CO)oc(C2C=C(c3ccccc3)Oc3ccc(Br)cc32)c1O (configuration not stated) | > 125 µg/mL | – | – | –
> 125 µg/mL | > 125 µg/mL | > 125 µg/mL | inactive | – | – | > 125 µg/mL | – | > 125 µg/mL | O=c1cc(CO)oc(C2C=C(c3ccccc3)Oc3c(Cl)cc(Br)cc32)c1O (configuration not stated) | > 125 µg/mL | – | – | –
3.9 µg/mL (≈ 11.2 µM) | 7.8 µg/mL (≈ 22.4 µM) | 7.8 µg/mL (≈ 22.4 µM) | inactive | 5.2 µg/mL (≈ 14.9 µM) | 3.4 µg/mL (≈ 9.76 µM) | > 125 µg/mL | 8.3 µg/mL (≈ 23.8 µM) | > 125 µg/mL | O=c1cc(CO)oc(C2C=C(c3ccccc3)Oc3ccccc32)c1O (configuration not stated) | > 125 µg/mL | 15.6 µg/mL (≈ 44.8 µM) | 7.8 µg/mL (≈ 22.4 µM) | 7.8 µg/mL (≈ 22.4 µM)
